# Test results reported in patent US20160303184A1, “VANCOMYCIN-SUGAR CONJUGATES AND USES THEREOF” (JAWAHARLAL NEHRU CENTRE FOR ADVANCED SCIENTIFIC RESEARCH …, priority 2013, published 2016).
# Like-named read-outs stand apart in the source and are kept apart here.
# Legend:
# Type in all cases: cell-based
# [1] = test system: Vancomycin-resistant E. faecium (VanA, ATCC 51559); assay: MIC, micro-dilution broth, VRE (VanA); conditions: E. faecium ATCC 51559, read-out: MIC VRE (VanA)
# Protocol: (§1) All test compounds were assayed in a micro-dilution broth format. Stock solutions were made by serially diluting the compounds using autoclaved millipore water or broth media. The antibacterial activity of the compounds was determined against methicillin-sensitive S. aureus (MSSA), methicillin-resistant S. aureus (MRSA), vancomycin-intermediate-resistant S. aureus (VISA), vancomycin-sensitive E. faecium (VSE) and vancomycin-resistant E. faecium (VRE). Bacteria, to be tested, were grown for about 10 h in the suitable media, MSSA, MRSA and VISA were grown in yeast-dextrose broth (about 1 g of beef extract, about 2 g of yeast extract, about 5 g of peptone and about 5 g of NaCl in about 1000 mL of sterile distilled water (pH-7)). For solid media, about 5% agar was used along with above mentioned composition. VSE and VRE were cultured in brain heart infusion broth (Himedia). The bacterial samples were freeze dried and stored at −80° C. About 5 μL of these stocks were added to about 3 mL of the nutrient broth and the culture was grown for about 6 h at about 37° C. prior to the experiments. This 6 h grown culture gives about 10^9 cfu/mL and this was determined by spread plating method. The 6 h grown culture was diluted to give effective cell concentration of about 10^5 cfu/mL which was then used for determining MIC. Compounds were serially diluted, in sterile water (2 fold dilution is employed) in a way that the working concentration was about 10 μM for MSSA, MRSA, and VSE while for VRE and VISA it was about 100 μM. About 50 μL of these serial dilutions were added to the wells of 96 well plate followed by the addition of about 150 μL of bacterial solution. The plates were then incubated at about 37° C., 150 rpm in the incubator and O.D at 600 nm was recorded at an interval of about 10 h and 24 h using TECAN (Infinite series, M200 pro) Plate Reader. Each concentration had triplicate values and the whole experiment was done at least twice and the MIC value was determined by taking the average of triplicate. O. D. values for each concentration and plotting it against concentration. The data was then subjected to sigmoidal fitting. From the curve the MIC value was determined, as the point in the curve where the O. D. was similar to that of control having no bacteria.
# [2] = test system: Vancomycin-sensitive E. faecium (ATCC 19634); assay: MIC, micro-dilution broth, VSE; conditions: read-out: MIC VSE
# Protocol: as §1
# [3] = test system: Methicillin-resistant S. aureus (ATCC 33591); assay: MIC, micro-dilution broth, MRSA; conditions: ATCC 33591, read-out: MIC MRSA
# Protocol: as §1
# [4] = test system: Methicillin-sensitive S. aureus (MTCC 737); assay: MIC, micro-dilution broth, MSSA; conditions: MTCC 737, read-out: MIC MSSA
# Protocol: as §1
# [5] = test system: Vancomycin intermediate resistant S. aureus; assay: MIC, micro-dilution broth, VISA; conditions: read-out: MIC VISA
# Protocol: as §1
# [6] = test system: Vancomycin-resistant E. faecalis (VanA, ATCC 51575); assay: MIC, micro-dilution broth, VRE (VanB); conditions: Enterococcus faecalis; E. faecalis ATCC 51575; read-out: MIC VRE (VanB)
# [7] = test system: methicillin-resistant S. aureus clinical isolate; assay: MIC, clinical isolate of methicillin-resistant S. aureus; conditions: Staphylococcus aureus, read-out: MIC S. aureus
# Protocol: as §1
# [8] = test system: methicillin-resistant S. epidermidis clinical isolate; assay: MIC, clinical isolate of methicillin-resistant S. epidermidis; conditions: Staphylococcus epidermidis, read-out: MIC S. epidermidis
# [9] = test system: methicillin-resistant S. haemolyticus clinical isolate; assay: MIC, clinical isolate of methicillin-resistant S. haemolyticus; conditions: Staphylococcus haemolyticus; clinical isolate, methicillin-resistant; read-out: MIC S. haemolyticus
# [10] = Enterococcus faecium, ATCC19634, ATCC 19634
Compound,MIC ([1]; Enterococcus faecium),"MIC [2, 10]",MIC ([3]; Staphylococcus aureus),MIC ([4]; Staphylococcus aureus),"MIC ([5]; Staphylococcus aureus, VISA)",MIC [1],MIC ([2]; ATCC 19634),MIC [3],MIC [4],MIC [5],MIC [6],MIC [7],MIC [8],MIC [9]
CN[C@H](CC(C)C)C(=O)N[C@H]1C(=O)N[C@@H](CC(N)=O)C(=O)N[C@H]2C(=O)N[C@H]3C(=O)N[C@H](C(=O)N[C@H](C(=O)NCCOC4OC(CO)C(O)C(O)C4O)c4cc(O)cc(O)c4-c4cc3ccc4O)[C@H](O)c3ccc(c(Cl)c3)Oc3cc2cc(c3O[C@H]2OC(CO)[C@H](O)C(O)C2O[C@H]2C[C@@](C)(N)[C@H](O)C(C)O2)Oc2ccc(cc2Cl)[C@H]1O (stereo partly drawn) [Compound 1],> 100 µM,0.6 µM,1.2 µM,1.4 µM,2.4 µM,–,–,–,–,–,–,–,–,–
CN[C@H](CC(C)C)C(=O)N[C@H]1C(=O)N[C@@H](CC(N)=O)C(=O)N[C@H]2C(=O)N[C@H]3C(=O)N[C@H](C(=O)N[C@H](C(=O)NCCOC4OC(CO)C(O)C(O)C4O)c4cc(O)cc(O)c4-c4cc3ccc4O)[C@H](O)c3ccc(c(Cl)c3)Oc3cc2cc(c3O[C@H]2OC(CO)[C@H](O)C(O)C2O[C@H]2C[C@@](C)(N)[C@H](O)C(C)O2)Oc2ccc(cc2Cl)[C@H]1O (stereo partly drawn) [Compound 2],–,–,–,–,–,>100 µM,1.2 µM,1.4 µM,1.2 µM,2.02 µM,–,–,–,–
CN[C@H](CC(C)C)C(=O)N[C@H]1C(=O)N[C@@H](CC(N)=O)C(=O)N[C@H]2C(=O)N[C@H]3C(=O)N[C@H](C(=O)N[C@H](C(=O)NCCCNC(=O)[C@H](O)[C@@H](O)[C@H](O)[C@H](O)CO)c4cc(O)cc(O)c4-c4cc3ccc4O)[C@H](O)c3ccc(c(Cl)c3)Oc3cc2cc(c3O[C@H]2OC(CO)[C@H](O)C(O)C2O[C@H]2C[C@@](C)(N)[C@H](O)C(C)O2)Oc2ccc(cc2Cl)[C@H]1O (stereo partly drawn) [Compound 3],54 µM,0.5 µM,0.7 µM,0.6 µM,0.88 µM,–,–,–,–,–,–,–,–,–
CN[C@H](CC(C)C)C(=O)N[C@H]1C(=O)N[C@@H](CC(N)=O)C(=O)N[C@H]2C(=O)N[C@H]3C(=O)N[C@H](C(=O)N[C@H](C(=O)NCCCNC(=O)[C@H](O)[C@@H](O)[C@H](OC4OC(CO)C(O)C(O)C4O)[C@H](O)CO)c4cc(O)cc(O)c4-c4cc3ccc4O)[C@H](O)c3ccc(c(Cl)c3)Oc3cc2cc(c3O[C@H]2OC(CO)[C@H](O)C(O)C2O[C@H]2C[C@@](C)(N)[C@H](O)C(C)O2)Oc2ccc(cc2Cl)[C@H]1O (stereo partly drawn) [Compound 4],36 µM,0.4 µM,0.38 µM,0.3 µM,0.3 µM,–,–,–,–,–,–,–,–,–
CN[C@H](CC(C)C)C(=O)N[C@H]1C(=O)N[C@@H](CC(N)=O)C(=O)N[C@H]2C(=O)N[C@H]3C(=O)N[C@H](C(=O)N[C@H](C(=O)NCCCNCC(O)C(O)C(OC4OC(CO)C(O)C(O)C4O)C(O)CO)c4cc(O)cc(O)c4-c4cc3ccc4O)[C@H](O)c3ccc(c(Cl)c3)Oc3cc2cc(c3O[C@H]2OC(CO)[C@H](O)C(O)C2O[C@H]2C[C@@](C)(N)[C@H](O)C(C)O2)Oc2ccc(cc2Cl)[C@H]1O (stereo partly drawn) [Compound 5],> 100 µM,0.66 µM,1 µM,1 µM,1.08 µM,–,–,–,–,–,–,–,–,–
CN[C@H](CC(C)C)C(=O)N[C@H]1C(=O)N[C@@H](CC(N)=O)C(=O)N[C@H]2C(=O)N[C@H]3C(=O)N[C@H](C(=O)N[C@H](C(=O)NCCCNCC(O)C(O)C(OC4OC(CO)C(O)C(O)C4O)C(O)CO)c4cc(O)cc(O)c4-c4cc3ccc4O)[C@H](O)c3ccc(c(Cl)c3)Oc3cc2cc(c3O[C@H]2OC(CO)[C@H](O)C(O)C2O[C@H]2C[C@@](C)(N)[C@H](O)C(C)O2)Oc2ccc(cc2Cl)[C@H]1O (stereo partly drawn) [Compound 6],–,–,–,–,–,>100 µM,0.5 µM,1.0 µM,1.0 µM,0.99 µM,–,–,–,–
CCCCCCCCCCN[C@]1(C)C[C@H](OC2C(O)[C@@H](O)C(CO)O[C@@H]2Oc2c3cc4cc2Oc2ccc(cc2Cl)[C@@H](O)[C@@H](NC(=O)[C@@H](CC(C)C)NC)C(=O)N[C@@H](CC(N)=O)C(=O)N[C@H]4C(=O)N[C@H]2C(=O)N[C@H](C(=O)N[C@H](C(=O)O)c4cc(O)cc(O)c4-c4cc2ccc4O)[C@H](O)c2ccc(c(Cl)c2)O3)OC(C)[C@@H]1O (stereo partly drawn) [Compound 8],14 µM,0.2 µM,0.3 µM,0.3 µM,0.32 µM,–,–,–,–,–,6.2 µM,–,–,–
CCCCCCCCN[C@]1(C)C[C@H](OC2C(O)[C@@H](O)C(CO)O[C@@H]2Oc2c3cc4cc2Oc2ccc(cc2Cl)[C@@H](O)[C@@H](NC(=O)[C@@H](CC(C)C)NC)C(=O)N[C@@H](CC(N)=O)C(=O)N[C@H]4C(=O)N[C@H]2C(=O)N[C@H](C(=O)N[C@H](C(=O)O)c4cc(O)cc(O)c4-c4cc2ccc4O)[C@H](O)c2ccc(c(Cl)c2)O3)OC(C)[C@@H]1O (stereo partly drawn) [Compound 15],25 µM,0.4 µM,0.3 µM,0.3 µM,0.4 µM,–,–,–,–,–,12.5 µM,–,–,–
CCCCCCCCCCCCN[C@]1(C)C[C@H](OC2C(O)[C@@H](O)C(CO)O[C@@H]2Oc2c3cc4cc2Oc2ccc(cc2Cl)[C@@H](O)[C@@H](NC(=O)[C@@H](CC(C)C)NC)C(=O)N[C@@H](CC(N)=O)C(=O)N[C@H]4C(=O)N[C@H]2C(=O)N[C@H](C(=O)N[C@H](C(=O)O)c4cc(O)cc(O)c4-c4cc2ccc4O)[C@H](O)c2ccc(c(Cl)c2)O3)OC(C)[C@@H]1O (stereo partly drawn) [Compound 16],7 µM,0.2 µM,0.3 µM,0.3 µM,0.3 µM,–,–,–,–,–,3.1 µM,–,–,–
CCCCCCCCN[C@]1(C)C[C@H](OC2C(O)[C@@H](O)C(CO)O[C@@H]2Oc2c3cc4cc2Oc2ccc(cc2Cl)[C@@H](O)[C@@H](NC(=O)[C@@H](CC(C)C)NC)C(=O)N[C@@H](CC(N)=O)C(=O)N[C@H]4C(=O)N[C@H]2C(=O)N[C@H](C(=O)N[C@H](C(=O)NCCCNC(=O)[C@H](O)[C@@H](O)[C@H](OC4OC(CO)C(O)C(O)C4O)[C@H](O)CO)c4cc(O)cc(O)c4-c4cc2ccc4O)[C@H](O)c2ccc(c(Cl)c2)O3)OC(C)[C@@H]1O (stereo partly drawn) [Compound 17],2 µM,0.2 µM,0.3 µM,0.2 µM,0.31 µM,–,–,–,–,–,6.2 µM,0.2 µM,0.3 µM,0.4 µM
CCCCCCCCCCCCN[C@]1(C)C[C@H](OC2C(O)[C@@H](O)C(CO)O[C@@H]2Oc2c3cc4cc2Oc2ccc(cc2Cl)[C@@H](O)[C@@H](NC(=O)[C@@H](CC(C)C)NC)C(=O)N[C@@H](CC(N)=O)C(=O)N[C@H]4C(=O)N[C@H]2C(=O)N[C@H](C(=O)N[C@H](C(=O)NCCCNC(=O)[C@H](O)[C@@H](O)[C@H](OC4OC(CO)C(O)C(O)C4O)[C@H](O)CO)c4cc(O)cc(O)c4-c4cc2ccc4O)[C@H](O)c2ccc(c(Cl)c2)O3)OC(C)[C@@H]1O (stereo partly drawn) [Compound 18],0.8 µM,0.2 µM,0.3 µM,0.2 µM,0.22 µM,–,–,–,–,–,1 µM,0.3 µM,0.35 µM,0.5 µM
